Measurements taken from paper PMC3747139 (PLoS ONE, 2013).

Columns and labels:
telomerase = tested on: telomerase; parameters: method as in PMID 10741725; settings: cited from earlier work
NQF DNA = test: Stop assay (inhibition of in vitro DNA synthesis) with NQF DNA; assay type: biochemical; settings: 5 µM NQF DNA
Protocol: The G-quadruplex structure forming region of QF oligonucleotide is shown in bold letters.
To the PCR reaction mixture (25 µl) containing 10 mM Tris-HCl, pH 8.3, with 50 mM KCl, 1.5 mM Mg(OAc)2, 5 µM of each oligonucleotide, 1 mM dNTPs, 5 units of Taq polymerase, L1, L2, L3 were added at various concentrations (50 µM, 100 µM, 150 µM, 200 µM), and PCR reactions were performed. PCR mixture without any ligand was considered as control. The primers were 5′ end-labelled with [γ-^32P] ATP using 1 µl of polynucleotide kinase and 5 µl of 10× kinase buffer and the contents were incubated at 37°C for 5 min. Stop assay was performed using an ABI thermal cycler. Initial denaturation was done at 94°C for 3 min, followed by 20 repeated cycles each having 94°C for 30 sec, 58°C for 30 sec, and 72°C for 30 sec. After PCR, 5 µl of the amplified product was loaded on a 12% non-denaturing polyacrylamide gel with 1×TBE. The in vitro DNA synthetic band intensity was measured using Bio Rad Gel Doc XR+system (USA). The band intensity of the PCR product obtained with no ligand was taken as control for all the quadruplex forming DNA samples (QF DNA). Percentage of DNA synthesis inhibition was calculated using equation 1, whereas, inhibition constant, Ki (using Cheng-Prusoff equation) for each ligand was calculated by using equation 2. [drawing 2] (1)

For Cc1cn([C@H]2C[C@H](N=[N+]=[N-])[C@@H](CO)O2)c(=O)[nH]c1=O [Ligand L1, 1-(4-azido 5-(hydroxylmethyl)tetrahydrofuran-2-yl)-5-methyl pyrimidi-ne-2,4(1H,3H)-dione, reference compound], the “concentration reported to inhibit telomerase” value (telomerase) is given as “around 200 µM”.

With Cc1cn([C@H]2C[C@H](n3cc(-c4ccc(Cl)cc4)nn3)[C@@H](CO)O2)c(=O)[nH]c1=O [Ligand L3, 1-(4-(4-(4-chlorophenly)-1H-1,2,3-triazole-1-yl)-5-(hydroxymethyl)tetrahydrofuran-2-yl)-5-methylpyrimidine-2,3(1H,3H)-dione] the “inhibition of in vitro DNA synthesis with NQF DNA” value (NQF DNA) was “around 33%”.
